From patent US8741944B2, “Anti-infective agents against intracellular pathogens” (priority 2007, dated 2014)
Where two headings read alike, the source gives them in different places.

Legend:
[1] = test system: A549/ATCC (Non-Small Cell Lung Cancer); assay: NCI DTP tumor cell line screen (SRB), A549/ATCC
Procedure: (§1) For a typical screening experiment, cells are inoculated into 96 well microtiter plates in 100 μL at plating densities ranging from 5,000 to 40,000 cells/well depending on the doubling time of individual cell lines. After cell inoculation, the microtiter plates are incubated at 37° C., 5% CO2, 95% air and 100% relative humidity for 24 h prior to addition of experimental drugs.
(§2) After 24 h, two plates of each cell line are fixed in situ with TCA, to represent a measurement of the cell population for each cell line at the time of drug addition (Tz). Experimental drugs are solubilized in dimethyl sulfoxide at 400-fold the desired final maximum test concentration and stored frozen prior to use. At the time of drug addition, an aliquot of frozen concentrate is thawed and diluted to twice the desired final maximum test concentration with complete medium containing 50 μg/ml gentamicin. Additional four, 10-fold or ½ log serial dilutions are made to provide a total of five drug concentrations plus control. Aliquots of 100 μl of these different drug dilutions are added to the appropriate microtiter wells already containing 100 μl of medium, resulting in the required final drug concentrations.
(§3) Following drug addition, the plates are incubated for an additional 48 h at 37° C., 5% CO2, 95% air, and 100% relative humidity. For adherent cells, the assay is terminated by the addition of cold TCA. Cells are fixed in situ by the gentle addition of 50 μl of cold 50% (w/v) TCA (final concentration, 10% TCA) and incubated for 60 minutes at 4° C. The supernatant is discarded, and the plates are washed five times with tap water and air dried. Sulforhodamine B (SRB) solution (1001) at 0.4% (w/v) in 1% acetic acid is added to each well, and plates are incubated for 10 minutes at room temperature. After staining, unbound dye is removed by washing five times with 1% acetic acid and the plates are air dried. Bound stain is subsequently solubilized with 10 mM trizma base, and the absorbance is read on an automated plate reader at a wavelength of 515 nm. For suspension cells, the methodology is the same except that the assay is terminated by fixing settled cells at the bottom of the wells by gently adding 50 μl of 80% TCA (final concentration, 16% TCA). Using the seven absorbance measurements [time zero, (Tz), control growth, (C), and test growth in the presence of drug at the five concentration levels (Ti)], the percentage growth is calculated at each of the drug concentrations levels. Percentage growth inhibition is calculated as: [(Ti−Tz)/(C−Tz)]×100 for concentrations for which Ti>/=Tz [(Ti−Tz)/Tz]×100 for concentrations for which Ti<Tz
(§4) Three dose response parameters are calculated for each experimental agent. […] The drug concentration resulting in total growth inhibition (TGI) is calculated from Ti=Tz. […] Values are calculated for each of these three parameters if the level of activity is reached; however, if the effect is not reached or is exceeded, the value for that parameter is expressed as greater or less than the maximum or minimum concentration tested.

[2] = test system: OVCAR-3 (Ovarian Cancer); assay: NCI DTP tumor cell line screen (SRB), OVCAR-3
Procedure: as §1, §2, §3, §4

[3] = test system: SK-MEL-2 (Melanoma); assay: NCI DTP tumor cell line screen (SRB), SK-MEL-2
Procedure: as §1, §2, §3, §4

[4] = test system: A498 (Renal Cancer); assay: NCI DTP tumor cell line screen (SRB), A498
Procedure: as §1, §2, §3, §4

[5] = test system: SR (Leukemia); assay: NCI DTP tumor cell line screen (SRB), SR
Procedure: as §1, §2, §3, §4

[6] = test system: HT29 (Colon Cancer); assay: NCI DTP tumor cell line screen (SRB), HT29
Procedure: as §1, §2, §3, §4

[7] = test system: sixty human tumor cell lines; assay: NCI DTP sixty human tumor cell line screen (SRB), means over the panel
[8] = test system: MALME-3M (Melanoma); assay: NCI DTP tumor cell line screen (SRB), MALME-3M
Procedure: as §1, §2, §3, §4

[9] = test system: MOLT-4 (Leukemia); assay: NCI DTP tumor cell line screen (SRB), MOLT-4
Procedure: as §1, §2, §3, §4

[10] = test system: NCI/ADR-RES (Breast Cancer)
Procedure: as §1, §2, §3, §4

[11] = test system: SN12C (Renal Cancer); assay: NCI DTP tumor cell line screen (SRB), SN12C
Procedure: as §1, §2, §3, §4

[12] = test system: EKVX (Non-Small Cell Lung Cancer); assay: NCI DTP tumor cell line screen (SRB), EKVX
Procedure: as §1, §2, §3, §4

[13] = test system: OVCAR-8 (Ovarian Cancer); assay: NCI DTP tumor cell line screen (SRB), OVCAR-8; conditions: OVCAR-8
Procedure: as §1, §2, §3, §4

[14] = test system: HCT-116 (Colon Cancer); assay: NCI DTP tumor cell line screen (SRB), HCT-116
Procedure: as §1, §2, §3, §4

[15] = test system: NCI-H23 (Non-Small Cell Lung Cancer)
Procedure: as §1, §2, §3, §4

[16] = test system: HS 578T (Breast Cancer); assay: NCI DTP tumor cell line screen (SRB), HS 578T
Procedure: as §1, §2, §3, §4

## NCC(=O)Nc1ccc(-n2nc(C(F)(F)F)cc2-c2ccc3c(ccc4ccccc43)c2)cc1 [Compound 70, 2-Amino-N-{4-[5-(2-phenanthrenyl)-3-(trifluoromethyl)-1H-pyrazol-1-yl]-phenyl}-acetamide]
[1]
  TGI: 2.96E−06
[1]; Log10 Concentration −4.0
  Mean Optical Densities: 0.252
[1]; Log10 Concentration −5.0
  Mean Optical Densities: 0.155
  Percent Growth: −57%
[1]; Log10 Concentration −6.0
  Mean Optical Densities: 0.831
  Percent Growth: 51%
[1]; Log10 Concentration −7.0
  Mean Optical Densities: 1.149
  Percent Growth: 86%
[1]; Log10 Concentration −8.0
  Mean Optical Densities: 1.294
  Percent Growth: 102%
[2]
  TGI: 3.32E−06
[2]; Log10 Concentration −4.0
  Mean Optical Densities: 0.301
[2]; Log10 Concentration −5.0
  Mean Optical Densities: 0.140
  Percent Growth: −70%
[2]; Log10 Concentration −6.0
  Mean Optical Densities: 0.816
  Percent Growth: 76%
[2]; Log10 Concentration −7.0
  Mean Optical Densities: 0.849
  Percent Growth: 83%
[2]; Log10 Concentration −8.0
  Mean Optical Densities: 0.879
  Percent Growth: 89%
[3]
  TGI: 5.40E−06
[3]; Log10 Concentration −4.0
  Mean Optical Densities: 0.330
[3]; Log10 Concentration −5.0
  Mean Optical Densities: 0.289
[3]; Log10 Concentration −6.0
  Mean Optical Densities: 0.885
  Percent Growth: 100%
[3]; Log10 Concentration −7.0
  Mean Optical Densities: 0.956
  Percent Growth: 117%
[3]; Log10 Concentration −8.0
  Mean Optical Densities: 0.943
  Percent Growth: 114%
[4]
  TGI: 5.75E−06
[4]; Log10 Concentration −4.0
  Mean Optical Densities: 0.433
[4]; Log10 Concentration −5.0
  Mean Optical Densities: 0.660
  Percent Growth: −30%
[4]; Log10 Concentration −6.0
  Mean Optical Densities: 2.201
  Percent Growth: 95%
[4]; Log10 Concentration −7.0
  Mean Optical Densities: 2.598
  Percent Growth: 126%
[4]; Log10 Concentration −8.0
  Mean Optical Densities: 2.230
  Percent Growth: 98%
[5]
  TGI: 4.17E−06
[5]; Log10 Concentration −4.0
  Mean Optical Densities: 0.363
[5]; Log10 Concentration −5.0
  Mean Optical Densities: 0.265
  Percent Growth: −27%
[5]; Log10 Concentration −6.0
  Mean Optical Densities: 0.605
  Percent Growth: 45%
[5]; Log10 Concentration −7.0
  Mean Optical Densities: 0.796
  Percent Growth: 80%
[5]; Log10 Concentration −8.0
  Mean Optical Densities: 0.816
  Percent Growth: 84%
[6]
  TGI: 2.64E−06
[6]; Log10 Concentration −4.0
  Mean Optical Densities: 0.159
[6]; Log10 Concentration −5.0
  Mean Optical Densities: 0.075
  Percent Growth: −65%
[6]; Log10 Concentration −6.0
  Mean Optical Densities: 0.801
  Percent Growth: 47%
[6]; Log10 Concentration −7.0
  Mean Optical Densities: 1.299
  Percent Growth: 88%
[6]; Log10 Concentration −8.0
  Percent Growth: 92%
[7]
  concentration range completely suppressing cell growth in a diverse range of tumor cell lines: 3 to 5 µM
[7]; read-out: mean GI50 among the sixty cell lines, two-day treatment
  GI50: 1200 nM
[7]; two-day treatment
  mean TGI among the sixty cell lines: 3200 nM
[8]
  TGI: 3.67E−06
[8]; Log10 Concentration −4.0
  Mean Optical Densities: 0.290
[8]; Log10 Concentration −5.0
  Mean Optical Densities: 0.218
[8]; Log10 Concentration −6.0
  Mean Optical Densities: 1.102
[8]; Log10 Concentration −7.0
  Mean Optical Densities: 1.128
[9]
  TGI: 3.10E−06
[9]; Log10 Concentration −4.0
  Mean Optical Densities: 0.296
[9]; Log10 Concentration −5.0
  Mean Optical Densities: 0.180
  Percent Growth: −42%
[9]; Log10 Concentration −6.0
  Mean Optical Densities: 0.614
  Percent Growth: 41%
[9]; Log10 Concentration −7.0
  Mean Optical Densities: 0.951
  Percent Growth: 87%
[9]; Log10 Concentration −8.0
  Mean Optical Densities: 0.964
  Percent Growth: 89%
[10]
  TGI: 2.85E−06
[10]; Log10 Concentration −4.0
  Mean Optical Densities: 0.212
[10]; Log10 Concentration −5.0
  Mean Optical Densities: 0.229
  Percent Growth: −59%
[10]; Log10 Concentration −6.0
  Mean Optical Densities: 1.217
  Percent Growth: 49%
[10]; Log10 Concentration −7.0
  Mean Optical Densities: 1.878
  Percent Growth: 98%
[10]; Log10 Concentration −8.0
  Mean Optical Densities: 1.883
  Percent Growth: 98%
[11]
  TGI: 3.51E−06
[11]; Log10 Concentration −4.0
  Mean Optical Densities: 0.308
[11]; Log10 Concentration −5.0
  Mean Optical Densities: 0.203
  Percent Growth: −65%
[11]; Log10 Concentration −6.0
  Mean Optical Densities: 1.093
  Percent Growth: 78%
[11]; Log10 Concentration −7.0
  Mean Optical Densities: 1.194
  Percent Growth: 94%
[11]; Log10 Concentration −8.0
  Mean Optical Densities: 1.209
  Percent Growth: 96%
[12]
  TGI: 3.25E−06
[12]; Log10 Concentration −4.0
  Mean Optical Densities: 0.193
[12]; Log10 Concentration −5.0
  Mean Optical Densities: 0.156
  Percent Growth: −72%
[12]; Log10 Concentration −6.0
  Mean Optical Densities: 0.786
  Percent Growth: 75%
[12]; Log10 Concentration −7.0
  Mean Optical Densities: 0.860
  Percent Growth: 100%
[12]; Log10 Concentration −8.0
  Mean Optical Densities: 0.891
  Percent Growth: 110%
[13]
  TGI: 4.05E−06
[13]; Log10 Concentration −4.0
  Mean Optical Densities: 0.306
[13]; Log10 Concentration −5.0
  Mean Optical Densities: 0.269
  Percent Growth: −33%
[13]; Log10 Concentration −6.0
  Mean Optical Densities: 0.755
  Percent Growth: 51%
[13]; Log10 Concentration −7.0
  Mean Optical Densities: 1.114
  Percent Growth: 102%
[13]; Log10 Concentration −8.0
  Mean Optical Densities: 1.078
  Percent Growth: 97%
[14]; Log10 Concentration −4.0
  Mean Optical Densities: 0.146
[14]; Log10 Concentration −5.0
  Mean Optical Densities: 0.104
  Percent Growth: −9%
[14]; Log10 Concentration −6.0
  Mean Optical Densities: 0.452
  Percent Growth: 57%
[14]; Log10 Concentration −7.0
  Mean Optical Densities: 0.665
  Percent Growth: 93%
[14]; Log10 Concentration −8.0
  Mean Optical Densities: 0.751
  Percent Growth: 107%
[15]
  TGI: 2.87E−06
[15]; Log10 Concentration −4.0
  Mean Optical Densities: 0.156
[15]; Log10 Concentration −5.0
  Mean Optical Densities: 0.097
  Percent Growth: −79%
[15]; Log10 Concentration −6.0
  Mean Optical Densities: 1.255
  Percent Growth: 67%
[15]; Log10 Concentration −7.0
  Mean Optical Densities: 1.673
  Percent Growth: 102%
[15]; Log10 Concentration −8.0
  Mean Optical Densities: 1.672
  Percent Growth: 101%
[16]
  TGI: 5.25E−06
[16]; Log10 Concentration −4.0
  Mean Optical Densities: 0.333
[16]; Log10 Concentration −5.0
  Mean Optical Densities: 0.351
[16]; Log10 Concentration −6.0
  Mean Optical Densities: 1.110
[16]; Log10 Concentration −7.0
  Mean Optical Densities: 1.179
[16]; Log10 Concentration −8.0
  Mean Optical Densities: 1.221
